How the values were obtained:
Format in all cases: cell-based
human GLUT4 = molecular target: T1, human GLUT4 (Homo sapiens, UniProt P14672); test: [3H]-deoxy-D-glucose uptake assay, GLUT4; details: [3H]-deoxy-D-glucose uptake in HEK293 cells stably expressing human GLUT4
T1 construct: expressed in transfected cells
T1 sequence (P14672 1-509): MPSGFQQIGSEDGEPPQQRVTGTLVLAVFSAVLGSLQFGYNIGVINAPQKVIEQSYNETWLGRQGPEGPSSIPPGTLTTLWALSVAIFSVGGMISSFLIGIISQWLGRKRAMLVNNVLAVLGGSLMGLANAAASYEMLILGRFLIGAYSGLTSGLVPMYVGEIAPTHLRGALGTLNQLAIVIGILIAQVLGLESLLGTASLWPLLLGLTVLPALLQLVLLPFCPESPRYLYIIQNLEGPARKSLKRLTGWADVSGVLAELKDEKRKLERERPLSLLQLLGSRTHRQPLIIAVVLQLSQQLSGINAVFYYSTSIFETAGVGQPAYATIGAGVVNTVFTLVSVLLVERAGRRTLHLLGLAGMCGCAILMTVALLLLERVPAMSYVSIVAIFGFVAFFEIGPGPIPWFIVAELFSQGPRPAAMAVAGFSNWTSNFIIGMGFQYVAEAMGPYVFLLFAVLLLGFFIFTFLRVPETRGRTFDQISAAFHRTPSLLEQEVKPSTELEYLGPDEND
Experimental: (§1) HEK293 cells were engineered to stably express either human GLUT1, GLUT2, GLUt3 or GLUT4 by transfection with the pReceiver-Lv105 plasmid, containing either hGLUT1, hGLUT2, hGLUT3, or hGLUT4 gene constructs with lipofectamine 2000, hGLUT1- hGLUT2- hGLUT3- or hGLUT4-overexpressing polyclonal populations were isolated under purinomycin selective pressure (1 μg/ml) and maintained in Dulbecco's modified Eagle's medium supplemented with 1 μg/ml purinomycin+10% foetal bovine serum (FBS).
(§2) 60,000 cells per well were seeded overnight into poly-D-lysine coasted 96-well plates. Following media removal, cells were washed twice in warm glucose-free uptake buffer (25 mM HEPES/KOH pH 7.4, 125 mM NaCl, 4.8 mM KCl, 1.2 mM MgSO4, 1.2 mM CaCl2, 1.2 mM KH2PO4). 90 μl of test compounds were added in glucose-free uptake buffer and cells were incubated at 37° C. for 30 min. 10 μl of [3H]-deoxy-D-glucose (0.25 μCi, 125 μM final assay concentration) was then added per well in glucose-free uptake buffer and uptake was allowed to proceed at 37° C. for 30 min.
(§3) Cells were then washed twice with ice-cold PBS and 100 μl of Microscint-20 was added per well. Glucose uptake was quantified with a scintillation counter. The half maximal inhibitory concentration (IC50) (a measure of the effectiveness of the test compound in inhibiting glucose uptake) was determined.

human GLUT1 = molecular target: T2, human GLUT1 (Homo sapiens, UniProt P11166); test: [3H]-deoxy-D-glucose uptake assay, GLUT1; details: [3H]-deoxy-D-glucose uptake in HEK293 cells stably expressing human GLUT1
T2 construct: expressed in transfected cells
T2 sequence (P11166 1-492): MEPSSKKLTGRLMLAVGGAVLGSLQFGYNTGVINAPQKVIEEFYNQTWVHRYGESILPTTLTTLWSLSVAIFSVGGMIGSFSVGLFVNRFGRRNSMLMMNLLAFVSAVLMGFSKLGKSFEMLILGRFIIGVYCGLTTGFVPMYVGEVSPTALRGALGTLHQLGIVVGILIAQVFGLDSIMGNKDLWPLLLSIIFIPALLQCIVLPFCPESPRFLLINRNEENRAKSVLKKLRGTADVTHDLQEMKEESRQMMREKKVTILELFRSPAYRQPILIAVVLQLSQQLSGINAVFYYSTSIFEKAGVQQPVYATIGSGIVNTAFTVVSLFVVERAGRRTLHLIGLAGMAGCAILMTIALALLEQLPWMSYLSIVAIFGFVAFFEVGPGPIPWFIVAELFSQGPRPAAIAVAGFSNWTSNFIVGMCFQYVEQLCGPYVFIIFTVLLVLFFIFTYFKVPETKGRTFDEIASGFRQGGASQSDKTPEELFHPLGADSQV
In short: (§4)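 HEK293 cells stably overexpressing human GLUT1 or GLUT2, seeded at 60,000 per well, treated with compounds in glucose-free uptake buffer for 30 min at 37 °C. [3H]-deoxy-D-glucose uptake quantified by scintillation counting after ice-cold PBS washes; IC50 determined.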

human GLUT3 = molecular target: T3, human GLUT3 (Homo sapiens, UniProt P11169); test: [3H]-deoxy-D-glucose uptake assay, GLUT3; details: [3H]-deoxy-D-glucose uptake in HEK293 cells stably expressing human GLUT3
T3 construct: expressed in transfected cells
T3 sequence (P11169 1-496): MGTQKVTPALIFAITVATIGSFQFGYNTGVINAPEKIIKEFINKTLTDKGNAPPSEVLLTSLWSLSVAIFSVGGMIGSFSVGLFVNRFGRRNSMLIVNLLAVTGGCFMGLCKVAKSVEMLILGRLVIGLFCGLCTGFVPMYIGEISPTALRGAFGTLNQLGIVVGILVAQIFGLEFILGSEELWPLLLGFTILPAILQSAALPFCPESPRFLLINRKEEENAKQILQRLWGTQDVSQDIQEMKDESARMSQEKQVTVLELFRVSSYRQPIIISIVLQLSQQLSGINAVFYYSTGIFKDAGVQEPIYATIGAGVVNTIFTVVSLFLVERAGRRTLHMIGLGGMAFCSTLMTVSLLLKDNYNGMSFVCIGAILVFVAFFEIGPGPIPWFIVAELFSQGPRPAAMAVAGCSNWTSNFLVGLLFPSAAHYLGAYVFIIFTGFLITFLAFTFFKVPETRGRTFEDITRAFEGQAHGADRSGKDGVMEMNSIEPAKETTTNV
Experimental: as §1, §2, §3

human GLUT2 = molecular target: T4, human GLUT2 (Homo sapiens, UniProt P11168); test: [3H]-deoxy-D-glucose uptake assay, GLUT2; details: [3H]-deoxy-D-glucose uptake in HEK293 cells stably expressing human GLUT2
T4 construct: expressed in transfected cells
T4 sequence (P11168 1-524): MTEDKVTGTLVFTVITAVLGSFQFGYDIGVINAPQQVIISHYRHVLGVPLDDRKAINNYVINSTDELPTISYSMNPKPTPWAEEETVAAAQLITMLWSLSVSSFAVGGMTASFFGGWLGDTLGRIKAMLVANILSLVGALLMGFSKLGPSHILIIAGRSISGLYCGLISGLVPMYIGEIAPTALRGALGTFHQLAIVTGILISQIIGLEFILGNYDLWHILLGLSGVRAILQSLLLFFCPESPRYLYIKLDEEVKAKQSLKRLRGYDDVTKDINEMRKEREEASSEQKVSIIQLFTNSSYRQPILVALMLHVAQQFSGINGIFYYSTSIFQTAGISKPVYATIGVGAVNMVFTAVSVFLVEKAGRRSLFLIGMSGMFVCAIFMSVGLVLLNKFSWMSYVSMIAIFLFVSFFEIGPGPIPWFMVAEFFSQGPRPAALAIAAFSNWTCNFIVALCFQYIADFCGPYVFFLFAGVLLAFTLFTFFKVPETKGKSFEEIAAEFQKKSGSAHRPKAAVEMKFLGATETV
In short: as §4

Compound | GLUT4 pIC50 (human GLUT4) | GLUT1 pIC50 (human GLUT1) | GLUT3 pIC50 (human GLUT3) | GLUT2 pIC50 (human GLUT2)
CCCS(=O)(=O)N(C)c1ccc2nc(-c3ccc(Cl)cc3)c(CN3CCN(C(C)=O)CC3)n2c1 [Compound 341] | +++ (pIC50 ≧ 6.00) | +++ (pIC50 ≧ 6.00) | +++ (pIC50 ≧ 6.00) | +− (pIC50 < 4.00)
CN(c1ccc2nc(-c3ccc(Cl)cc3Cl)c(CN3CCn4ncnc4C3)n2c1)S(C)(=O)=O [Compound 346] | +++ (pIC50 ≧ 6.00) | +++ (pIC50 ≧ 6.00) | +++ (pIC50 ≧ 6.00) | ++ (pIC50 5.00-5.99)
CC(=O)N1CCN(Cc2c(-c3ccc(Cl)cc3)nc3ccc(S(=O)(=O)N(C)C)cn23)CC1 [Compound 350] | +++ (pIC50 ≧ 6.00) | +++ (pIC50 ≧ 6.00) | +++ (pIC50 ≧ 6.00) | ++ (pIC50 5.00-5.99)
CCN(c1ccc2nc(-c3ccc(Cl)cc3)c(CN3CCN(C(C)=O)CC3)n2c1)S(C)(=O)=O [Compound 353] | +++ (pIC50 ≧ 6.00) | +++ (pIC50 ≧ 6.00) | +++ (pIC50 ≧ 6.00) | ++ (pIC50 5.00-5.99)
CN(c1ccc2nc(-c3ccc(Cl)cc3Cl)c(CN3CCNC(=O)C3)n2c1)S(C)(=O)=O [Compound 355] | +++ (pIC50 ≧ 6.00) | +++ (pIC50 ≧ 6.00) | +++ (pIC50 ≧ 6.00) | +++ (pIC50 ≧ 6.00)
CC(=O)N1CCN(Cc2c(-c3ccc(Cl)cc3)nc3ccc(N(C(C)C)S(C)(=O)=O)cn23)CC1 [Compound 365] | +++ (pIC50 ≧ 6.00) | +++ (pIC50 ≧ 6.00) | +++ (pIC50 ≧ 6.00) | ++ (pIC50 5.00-5.99)
CC(C)c1cn2c(CN3CCOCC3)c(-c3ccc(Cl)cc3Cl)nc2cn1 [Compound 366] | +++ (pIC50 ≧ 6.00) | +++ (pIC50 ≧ 6.00) | +++ (pIC50 ≧ 6.00) | +++ (pIC50 ≧ 6.00)
CC(=O)N1CCN(Cc2c(-c3ccc(Cl)cc3)nc3ccc(N(C(F)F)S(C)(=O)=O)cn23)CC1 [Compound 368] | +++ (pIC50 ≧ 6.00) | +++ (pIC50 ≧ 6.00) | +++ (pIC50 ≧ 6.00) | +++ (pIC50 ≧ 6.00)

The next lines start with the values.

GLUT4 pIC50 (human GLUT4) | GLUT1 pIC50 (human GLUT1) | GLUT3 pIC50 (human GLUT3) | GLUT2 pIC50 (human GLUT2) | Compound
+++ (pIC50 ≧ 6.00) | +++ (pIC50 ≧ 6.00) | +++ (pIC50 ≧ 6.00) | ++ (pIC50 5.00-5.99) | CNS(=O)(=O)c1ccc2nc(-c3ccc(Cl)cc3)c(CN3CCN(C(C)=O)CC3)n2c1 [Compound 351]
+++ (pIC50 ≧ 6.00) | +++ (pIC50 ≧ 6.00) | +++ (pIC50 ≧ 6.00) | +++ (pIC50 ≧ 6.00) | CS(=O)(=O)Nc1ccc2nc(-c3ccc(Cl)cc3Cl)c(CN3CCN(C(=O)c4ccnnc4)CC3)n2c1 [Compound 356]
+++ (pIC50 ≧ 6.00) | +++ (pIC50 ≧ 6.00) | +++ (pIC50 ≧ 6.00) | ++ (pIC50 5.00-5.99) | CS(=O)(=O)Nc1ccc2nc(-c3ccc(Cl)cc3Cl)c(CN3CCN(C(=O)c4ccc(F)cc4)CC3)n2c1 [Compound 360]
+++ (pIC50 ≧ 6.00) | +++ (pIC50 ≧ 6.00) | +++ (pIC50 ≧ 6.00) | ++ (pIC50 5.00-5.99) | CC(C)(O)C(=O)N1CCN(Cc2c(-c3ccc(Cl)cc3Cl)nc3ccc(NS(C)(=O)=O)cn23)CC1 [Compound 361]
+++ (pIC50 ≧ 6.00) | +++ (pIC50 ≧ 6.00) | +++ (pIC50 ≧ 6.00) | +++ (pIC50 ≧ 6.00) | CN(c1ccc2nc(-c3ccc(Cl)cc3Cl)c(CN3CCN(C(=O)c4ccc(F)cc4)CC3)n2c1)S(C)(=O)=O [Compound 363]
+++ (pIC50 ≧ 6.00) | +++ (pIC50 ≧ 6.00) | +++ (pIC50 ≧ 6.00) | +++ (pIC50 ≧ 6.00) | CC(=O)N1CCN(Cc2c(-c3ccc(Cl)cc3Cl)nc3ccc(N(C(F)F)S(C)(=O)=O)cn23)CC1 [Compound 367]
+++ (pIC50 ≧ 6.00) | +++ (pIC50 ≧ 6.00) | +++ (pIC50 ≧ 6.00) | ++ (pIC50 5.00-5.99) | Cn1cc(C(=O)N2CCN(Cc3c(-c4ccc(Cl)cc4Cl)nc4ccc(NS(C)(=O)=O)cn34)CC2)cn1 [Compound 369]
+++ (pIC50 ≧ 6.00) | +++ (pIC50 ≧ 6.00) | +++ (pIC50 ≧ 6.00) | +++ (pIC50 ≧ 6.00) | CN(c1ccc2nc(-c3ccc(Cl)cc3Cl)c(CN3CCN(C(=O)c4ccnnc4)CC3)n2c1)S(C)(=O)=O [Compound 370]
